Assay results reported in ChEMBL document CHEMBL5625250, “Discovery of novel flavonoid-based CDK9 degraders for prostate cancer treatment via a PROTAC strategy” (Eur J Med Chem, 2023).
pIC50: −log10 of the molar value. ≈ marks a conversion by molar mass, not a printed value. Calls of active or inactive are those of the source. The calls are words filed in the database; no cut-off is given here.

What was measured:
[1] = target: Cyclin-dependent kinase 9 (Homo sapiens, UniProt P50750); test: Inhibition of CDK9 (unknown origin) at 20 nM in presence of ATP by ADP-Glo kinase assay relative to control
[2] = target: T1, Protein cereblon/Cyclin-dependent kinase 9 (Homo sapiens, UniProt P50750+Q96SW2); test: PROTAC activity at CRBN/CDK9 in human 22Rv1 cells assessed as degradation of CDK9 protein at 100 nM incubated for 12 hrs by Western blotting analysis relative to control; type: cell-based
[3] = Solubility of the compound in water at pH 7.4 by shake flask method; type: physicochemical
CWR22R = test: Antiproliferative activity against human 22Rv1 cells assessed as reduction in cell viability incubated for 72 hrs by SRB assay; type: functional, cell-based; details: 22Rv1, 72 h
[4] = Solubility of the compound in water at pH 6.0 by shake flask method; type: physicochemical
[5] = target: T1, Protein cereblon/Cyclin-dependent kinase 9; test: PROTAC activity at CRBN/CDK9 in human 22Rv1 cells assessed as degradation of CDK9 protein at 100 nM incubated for 12 hrs by Western blotting analysis; type: cell-based

T1 sequence (P50750 whole entry, looked up): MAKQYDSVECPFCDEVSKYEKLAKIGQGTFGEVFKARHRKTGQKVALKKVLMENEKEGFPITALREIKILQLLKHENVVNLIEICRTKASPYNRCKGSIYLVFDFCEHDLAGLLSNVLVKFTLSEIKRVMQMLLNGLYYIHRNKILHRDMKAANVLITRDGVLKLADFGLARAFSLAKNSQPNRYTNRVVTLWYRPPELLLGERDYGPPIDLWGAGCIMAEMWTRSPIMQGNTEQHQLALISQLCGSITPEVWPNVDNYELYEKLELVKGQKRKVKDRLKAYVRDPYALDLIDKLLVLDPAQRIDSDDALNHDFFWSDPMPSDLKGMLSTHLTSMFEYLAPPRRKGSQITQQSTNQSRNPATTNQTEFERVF
T1 sequence (Q96SW2 whole entry, looked up): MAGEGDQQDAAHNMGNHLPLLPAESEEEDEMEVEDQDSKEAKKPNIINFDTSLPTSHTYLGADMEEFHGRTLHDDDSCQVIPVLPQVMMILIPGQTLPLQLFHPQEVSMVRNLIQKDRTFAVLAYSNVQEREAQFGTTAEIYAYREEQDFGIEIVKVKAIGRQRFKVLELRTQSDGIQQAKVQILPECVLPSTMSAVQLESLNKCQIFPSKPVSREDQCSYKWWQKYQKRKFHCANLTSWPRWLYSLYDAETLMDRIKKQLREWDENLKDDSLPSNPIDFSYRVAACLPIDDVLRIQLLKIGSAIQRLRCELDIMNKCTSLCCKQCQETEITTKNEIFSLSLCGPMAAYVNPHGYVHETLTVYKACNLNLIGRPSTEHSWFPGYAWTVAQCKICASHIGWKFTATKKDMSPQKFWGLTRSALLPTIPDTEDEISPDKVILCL
Chain of Cyclin-dependent kinase 9 (P50750 whole entry): as the sequence (P50750 whole entry, looked up) above

| Compound | inhibition [1] | Activity [2] | solubility thermodynamic [3] | pIC50 (CWR22R) | solubility thermodynamic [4] | Activity [5] |
| --- | --- | --- | --- | --- | --- | --- |
| COc1cc(O)c2c(=O)cc(-c3ccc(N4CCN(C(=O)CNc5cccc6c5C(=O)N(C5CCC(=O)NC5=O)C6=O)CC4)cc3)oc2c1C1=CCN(C)CC1 (centres undefined) | 84.1% | 80% | 21 µg/mL (≈ 27.6 µM) | 7.00 | < 10 µg/mL |  |
| COc1cc(O)c2c(=O)cc(-c3ccc(N4CCN(C(=O)CCCCOc5cccc6c5C(=O)N(C5CCC(=O)NC5=O)C6=O)CC4)cc3)oc2c1C1=CCN(C)CC1 (centres undefined) | 74.2% |  | < 10 µg/mL | 6.07 | < 10 µg/mL | Active |
| COc1cc(O)c2c(=O)cc(-c3ccc(N4CCN(C(=O)CCCOc5cccc6c5C(=O)N(C5CCC(=O)NC5=O)C6=O)CC4)cc3)oc2c1C1=CCN(C)CC1 (centres undefined) | 79% |  | < 10 µg/mL | 6.39 | < 10 µg/mL | Active |
| CN1CC[C@H](c2c(O)cc(O)c3c(=O)cc(-c4ccccc4Cl)oc23)[C@H](O)C1 [ALVOCIDIB] |  |  |  | 6.62 |  |  |
| COc1cc(O)c2c(=O)cc(-c3ccc(N4CCN(CCC5CCN(c6ccc7c(c6)C(=O)N(C6CCC(=O)NC6=O)C7=O)CC5)CC4)cc3)oc2c1C1=CCN(C)CC1 (centres undefined) | 75% |  | 45 µg/mL (≈ 55.2 µM) | 6.46 | 117 µg/mL (≈ 144 µM) |  |
| COc1cc(O)c2c(=O)cc(-c3ccc(N4CCN(C(=O)CCCCCOc5cccc6c5C(=O)N(C5CCC(=O)NC5=O)C6=O)CC4)cc3)oc2c1C1=CCN(C)CC1 (centres undefined) | 69.9% |  | < 10 µg/mL | 6.19 | < 10 µg/mL |  |
